Results: patent US11198713B2, “Agents modulating beta-catenin functions and methods thereof” (FOG PHARMACEUTICALS, INC., priority 2017, dated 2021)

What follows are molecules tested against T1, full-length beta-catenin (Axin site) (Homo sapiens, UniProt P35222) (assay: Competition fluorescence polarization assay (Axin site probe)). Conditions: competition fluorescence polarization, Table 2; read-out: in vitro FP EC50.
T1 construct: 15 nM full-length beta-catenin, 20 nM FITC labeled peptide in buffer
T1 sequence (P35222 1-781): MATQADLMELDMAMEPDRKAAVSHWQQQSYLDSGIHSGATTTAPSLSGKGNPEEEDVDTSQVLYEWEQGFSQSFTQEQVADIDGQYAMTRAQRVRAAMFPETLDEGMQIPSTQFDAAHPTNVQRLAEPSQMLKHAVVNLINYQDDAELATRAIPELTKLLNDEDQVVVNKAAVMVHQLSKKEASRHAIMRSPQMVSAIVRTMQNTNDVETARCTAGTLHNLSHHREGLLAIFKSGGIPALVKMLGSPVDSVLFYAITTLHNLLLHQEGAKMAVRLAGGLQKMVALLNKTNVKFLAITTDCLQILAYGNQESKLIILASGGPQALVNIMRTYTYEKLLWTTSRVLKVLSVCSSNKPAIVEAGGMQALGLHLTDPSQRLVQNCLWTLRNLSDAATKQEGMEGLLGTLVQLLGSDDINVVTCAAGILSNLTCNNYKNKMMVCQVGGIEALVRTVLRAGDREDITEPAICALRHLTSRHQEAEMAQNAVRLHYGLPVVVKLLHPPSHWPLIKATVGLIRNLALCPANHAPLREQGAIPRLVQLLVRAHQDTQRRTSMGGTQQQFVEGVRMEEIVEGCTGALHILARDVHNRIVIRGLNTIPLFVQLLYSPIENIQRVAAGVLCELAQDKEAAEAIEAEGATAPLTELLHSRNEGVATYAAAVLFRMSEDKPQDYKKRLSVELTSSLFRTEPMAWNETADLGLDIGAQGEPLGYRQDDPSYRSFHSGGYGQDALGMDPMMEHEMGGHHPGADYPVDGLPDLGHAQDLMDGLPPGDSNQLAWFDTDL
Assay type: binding
Procedure, shortened: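 Competition FP: 15 nM full-length β-catenin pre-incubated 5 min with 20 nM FITC-labelled stapled Axin-site peptide, then titrated peptide added (3-fold series from 5 μM) for 15 min in the dark. Buffer 50 mM Tris pH 8.0, 250 mM NaCl, 2% glycerol, 0.5 mM EDTA; duplicate reads.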

| Compound | EC50 [µM] |
| --- | --- |
| CC[C@H](C)[C@@H]1NC(=O)[C@@](C)(NC(=O)[C@H](CCC(N)=O)NC(=O)[C@@H]2CCCN2C(C)=O)CCCC=CCOC(=O)N2CC(C(=O)N[C@@H](Cc3c[nH]cn3)C(=O)N[C@H](C(=O)N[C@@H](CCCNC(=N)N)C(=O)N[C@@H](CCCNC(=N)N)C(=O)N[C@H](C(=O)N[C@@H](Cc3c[nH]c4ccccc34)C(=O)N[C@@H](CCCNC(=N)N)C(N)=O)C(C)C)C(C)C)(C2)NC(=O)[C@H](CC(=O)O)NC(=O)[C@H](CC(C)C)NC1=O (single isomer, unassigned) [FP0734c, Ac-P-Q-S5-I-L-D-MA-H-V-R-R-V-W-R-NH2] | > 5 |
| CC[C@H](C)[C@@H]1NC(=O)[C@H](Cc2ccccn2)NC(=O)[C@H](C)NC(=O)[C@H](CC(=O)O)NC(=O)[C@H](CC(C)C)NC(=O)[C@H]([C@@H](C)CC)NC(=O)[C@](C)(NC(=O)[C@H](C)NC(C)=O)CCCCCCC=CCOC(=O)N2CC[C@@](C(=O)N[C@@H](Cc3ccccc3)C(=O)N[C@H](C(=O)N[C@@H](Cc3c[nH]c4ccccc34)C(N)=O)C(C)C)(C2)NC1=O (single isomer, unassigned) [FP0555c Isomer 1, Ac-A-R8-I-L-D-A-2pyr-I-MB-F-V-W-NH2] | > 5 |
| CC[C@H](C)[C@@H]1NC(=O)[C@H](Cc2ccccn2)NC(=O)[C@H](C)NC(=O)[C@H](CC(=O)O)NC(=O)[C@H](CC(C)C)NC(=O)[C@H]([C@@H](C)CC)NC(=O)[C@](C)(NC(=O)[C@H](C)NC(C)=O)CCCCCCC=CCOC(=O)N2CC[C@@](C(=O)N[C@@H](Cc3ccccn3)C(=O)N[C@H](C(=O)N[C@@H](Cc3c[nH]c4ccccc34)C(N)=O)C(C)C)(C2)NC1=O (single isomer, unassigned) [FP0572c Isomer 1, Ac-A-R8-I-L-D-A-2pyr-I-MB-2pyr-V-W-NH2] | > 5 |
| CC[C@H](C)[C@@H]1NC(=O)[C@H](Cc2ccccn2)NC(=O)[C@H](C)NC(=O)[C@H](CC(=O)O)NC(=O)[C@H](CC(C)C)NC(=O)[C@H]([C@@H](C)CC)NC(=O)[C@](C)(NC(=O)[C@H](C)NC(C)=O)CCCCCCC=CCOC(=O)N2CC[C@@](C(=O)N[C@@H](Cc3ccc(F)cc3)C(=O)N[C@H](C(=O)N[C@@H](Cc3c[nH]c4ccccc34)C(N)=O)C(C)C)(C2)NC1=O (single isomer, unassigned) [FP0576c Isomer 2, Ac-A-R8-I-L-D-A-2pyr-I-MB-4FF-V-W-NH2] | > 5 |
| CC[C@H](C)[C@@H]1NC(=O)[C@H](Cc2ccccn2)NC(=O)[C@H](C)NC(=O)[C@H](CC(=O)O)NC(=O)[C@H](CC(C)C)NC(=O)[C@H]([C@@H](C)CC)NC(=O)[C@](C)(NC(=O)[C@H](C)NC(C)=O)CCCCCCC=CCOC(=O)N2CC[C@@](C(=O)N[C@@H](CO)C(=O)N[C@H](C(=O)N[C@@H](Cc3c[nH]c4ccccc34)C(N)=O)C(C)C)(C2)NC1=O (single isomer, unassigned) [FP0560c Isomer 2, Ac-A-R8-I-L-D-A-2pyr-I-MB-S-V-W-NH2] | > 5 |
| CC[C@H](C)[C@@H]1NC(=O)[C@H](Cc2ccccn2)NC(=O)[C@H](C)NC(=O)[C@H](CC(=O)O)NC(=O)[C@H](CC(C)C)NC(=O)[C@H]([C@@H](C)CC)NC(=O)[C@](C)(NC(=O)[C@H](C)NC(C)=O)CCCCCCC=CCOC(=O)N2CC[C@@](C(=O)N[C@@H](CC(N)=O)C(=O)N[C@H](C(=O)N[C@@H](Cc3c[nH]c4ccccc34)C(N)=O)C(C)C)(C2)NC1=O (single isomer, unassigned) [FP0558c Isomer 2, Ac-A-R8-I-L-D-A-2pyr-I-MB-N-V-W-NH2] | > 5 |
| CC[C@H](C)[C@@H]1NC(=O)[C@H](Cc2ccccn2)NC(=O)[C@H](C)NC(=O)[C@H](CC(=O)O)NC(=O)[C@H](CC(C)C)NC(=O)[C@H]([C@@H](C)CC)NC(=O)[C@](C)(NC(=O)[C@H](C)NC(C)=O)CCCCCCC=CCOC(=O)N2CC[C@@](C(=O)N[C@@H](Cc3ccc(F)cc3)C(=O)N[C@H](C(=O)N[C@@H](Cc3c[nH]c4ccccc34)C(N)=O)C(C)C)(C2)NC1=O (single isomer, unassigned) [FP0576c Isomer 1, Ac-A-R8-I-L-D-A-2pyr-I-MB-4FF-V-W-NH2] | > 5 |
| CC[C@H](C)[C@@H]1NC(=O)[C@H](Cc2ccccn2)NC(=O)[C@H](C)NC(=O)[C@H](CC(=O)O)NC(=O)[C@H](CC(C)C)NC(=O)[C@H]([C@@H](C)CC)NC(=O)[C@](C)(NC(=O)[C@H](C)NC(C)=O)CCCCCCC=CCOC(=O)N2CC[C@@](C(=O)N[C@@H](Cc3ccc(C)cc3)C(=O)N[C@H](C(=O)N[C@@H](Cc3c[nH]c4ccccc34)C(N)=O)C(C)C)(C2)NC1=O (single isomer, unassigned) [FP0578c Isomer 2, Ac-A-R8-I-L-D-A-2pyr-I-MB-4MeF-V-W-NH2] | > 5 |

Second part, the molecule after the results:

| EC50 [µM] | Compound |
| --- | --- |
| > 5 | CC[C@H](C)[C@@H]1NC(=O)[C@H](Cc2ccccn2)NC(=O)[C@H](C)NC(=O)[C@H](CC(=O)O)NC(=O)[C@H](CC(C)C)NC(=O)[C@H]([C@@H](C)CC)NC(=O)[C@](C)(NC(=O)[C@H](C)NC(C)=O)CCCCCCC=CCOC(=O)N2CC[C@@](C(=O)N[C@@H](CCC(N)=O)C(=O)N[C@H](C(=O)N[C@@H](Cc3c[nH]c4ccccc34)C(N)=O)C(C)C)(C2)NC1=O (single isomer, unassigned) [FP0559c Isomer 2, Ac-A-R8-I-L-D-A-2pyr-I-MB-Q-V-W-NH2] |
| < 0.1 | CC[C@H](C)[C@@H]1NC(=O)[C@H](Cc2c[nH]cn2)NC(=O)[C@H](C)NC(=O)[C@H](CC(=O)O)NC(=O)[C@H](CC(C)C)NC(=O)[C@H]([C@@H](C)CC)NC(=O)[C@](C)(NC(=O)[C@H](C)NC(C)=O)CN(C)C(=O)OCC=CCCCCCC[C@@](C)(C(=O)N[C@@H](CCCNC(=N)N)C(=O)N[C@H](C(=O)N[C@@H](Cc2c[nH]c3ccccc23)C(N)=O)C(C)C)NC1=O (single isomer, unassigned) [FP0335c Isomer 2, Ac-A-ME-I-L-D-A-H-I-S8-R-V-W-NH2] |
| 0.5 to 5 | CC[C@H](C)[C@@H]1NC(=O)[C@H](Cc2c[nH]cn2)NC(=O)[C@H](C)NC(=O)[C@H](CC(=O)O)NC(=O)[C@H](CC(C)C)NC(=O)[C@H]([C@@H](C)CC)NC(=O)[C@](C)(NC(=O)[C@H](C)NC(C)=O)CCCCCCC=CCOC(=O)N2CC[C@@](C(=O)N[C@@H](CO)C(=O)N[C@H](C(=O)N[C@@H](Cc3c[nH]c4ccccc34)C(N)=O)C(C)C)(C2)NC1=O [FP0542c, Ac-A-R8-I-L-D-A-H-I-MB-S-V-W-NH2] |
| 0.5 to 5 | CC[C@H](C)[C@@H]1NC(=O)[C@@](C)(NC(=O)[C@H](CCC(N)=O)NC(=O)[C@@H]2CCCN2C(C)=O)CCN(C)C(=O)OCC=CCCC[C@@](C)(C(=O)N[C@@H](Cc2c[nH]cn2)C(=O)N[C@H](C(=O)N[C@@H](CCCNC(=N)N)C(=O)N[C@@H](CCCNC(=N)N)C(=O)N[C@H](C(=O)N[C@@H](Cc2c[nH]c3ccccc23)C(=O)N[C@@H](CCCNC(=N)N)C(N)=O)C(C)C)C(C)C)NC(=O)[C@H](CC(=O)O)NC(=O)[C@H](CC(C)C)NC1=O (single isomer, unassigned) [FP0779c, Ac-P-Q-MF-I-L-D-S5-H-V-R-R-V-W-R-NH2] |
| 0.1 to 0.5 | CC[C@H](C)[C@@H]1NC(=O)[C@H](Cc2c[nH]cn2)NC(=O)[C@H](C)NC(=O)[C@H](CC(=O)O)NC(=O)[C@](C)(CC(C)C)NC(=O)[C@H]([C@@H](C)CC)NC(=O)[C@](C)(NC(=O)[C@H](C)NC(C)=O)CCCCCCC=CCOC(=O)N2CC[C@@](C(=O)N[C@@H](CCCNC(=N)N)C(=O)N[C@H](C(=O)N[C@@H](Cc3c[nH]c4ccccc34)C(N)=O)C(C)C)(C2)NC1=O [FP0644c, Ac-A-R8-I-aMeL-D-A-H-I-MB-R-V-W-NH2] |

Same assay, conditions: competition with FITC labeled Axin-site probe, 15 nM full-length beta-catenin; read-out: FP EC50

| Compound | EC50 [µM] |
| --- | --- |
| CC[C@H](C)[C@@H]1NC(=O)[C@](C)(NC(=O)[C@H](CCC(N)=O)NC(=O)[C@@H]2CCCN2C(C)=O)CCCCCC=CCN2CC[C@](C(=O)N[C@@H](Cc3c[nH]cn3)C(=O)N[C@H](C(=O)N[C@@H](CCCNC(=N)N)C(=O)N[C@@H](CCCNC(=N)N)C(=O)N[C@H](C(=O)N[C@@H](Cc3c[nH]c4ccccc34)C(=O)N[C@@H](CCCNC(=N)N)C(N)=O)C(C)C)C(C)C)(C2)NC(=O)[C@H](CC(=O)O)NC(=O)[C@H](CC(C)C)NC1=O (single isomer, unassigned) [FP-0768, Ac-P-Q-R7-I-L-D-PR-H-V-R-R-V-W-R-NH2] | > 5 |
| CC[C@H](C)[C@@H]1NC(=O)[C@](C)(NC(=O)[C@H](CCC(N)=O)NC(=O)[C@@H]2CCCN2C(C)=O)CCCC=CCN2CC[C@@](C(=O)N[C@@H](Cc3c[nH]cn3)C(=O)N[C@H](C(=O)N[C@@H](CCCNC(=N)N)C(=O)N[C@@H](CCCNC(=N)N)C(=O)N[C@H](C(=O)N[C@@H](Cc3c[nH]c4ccccc34)C(=O)N[C@@H](CCCNC(=N)N)C(N)=O)C(C)C)C(C)C)(C2)NC(=O)[C@H](CC(=O)O)NC(=O)[C@H](CC(C)C)NC1=O (single isomer, unassigned) [FP-0758, Ac-P-Q-R5-I-L-D-PS-H-V-R-R-V-W-R-NH2] | > 5 |
